# Results as given in patent publication EP1586565A1, “Substituted polycyclic aryl and heteroaryl pyrazinones useful for selective inhibition of the coagulation cascade” (Pharmacia Corporation, priority 1999, dated 2000).
# Target: T1, Human factor Xa (Homo sapiens, UniProt P00742)
# T1 construct: leads from XII to XIIa to XIa to IXa and to the conversion of X to Xa; purchased Enzyme Research Laboratories, South Bend IN
# Assay: Xa Assay
# Assay type: biochemical
# Conditions: % inhibition at 30 µM (cells with % or %@30, bare 0)
# T1 sequence (P00742 235-488 limits assumed): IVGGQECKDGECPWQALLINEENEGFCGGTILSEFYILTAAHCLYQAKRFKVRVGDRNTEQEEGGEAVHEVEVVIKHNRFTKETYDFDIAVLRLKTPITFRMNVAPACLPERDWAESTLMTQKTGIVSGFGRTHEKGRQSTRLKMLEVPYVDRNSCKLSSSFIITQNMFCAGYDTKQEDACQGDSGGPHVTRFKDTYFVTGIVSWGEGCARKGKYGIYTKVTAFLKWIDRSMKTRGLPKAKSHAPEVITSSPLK
# T1 sequence (P00742 41-179 limits assumed): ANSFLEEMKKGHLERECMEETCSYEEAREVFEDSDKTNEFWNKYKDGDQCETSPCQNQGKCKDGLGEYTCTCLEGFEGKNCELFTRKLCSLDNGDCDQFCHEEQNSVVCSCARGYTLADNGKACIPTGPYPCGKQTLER
row,IC50 or % Inhibition Factor Xa (30 µM),Compound
1,10%,Cc1c(Cl)nc(NCc2ccccc2)c(=O)n1CC(=O)NCc1ccc(C(=N)N)cc1 [1471-1]
2,10%,Cc1c(Cl)nc(NCCc2ccc(Cl)cc2)c(=O)n1CC(=O)NCc1ccc(C(=N)N)cc1 [1471-2]
3,0%,Cc1c(Cl)nc(NCc2ccncc2)c(=O)n1CC(=O)NCc1ccc(C(=N)N)cc1 [1471-3]
4,0%,Cc1c(Cl)nc(NCCN2CCOCC2)c(=O)n1CC(=O)NCc1ccc(C(=N)N)cc1 [1471-4]
5,12%,Cc1c(Cl)nc(NCCc2ccncc2)c(=O)n1CC(=O)NCc1ccc(C(=N)N)cc1 [1471-5]
6,14%,Cc1c(Cl)nc(NCCc2cccc(Cl)c2)c(=O)n1CC(=O)NCc1ccc(C(=N)N)cc1 [1471-6]
7,4%,Cc1c(Cl)nc(NCCc2ccccc2)c(=O)n1CC(=O)NCc1ccc(C(=N)N)cc1 [1471-7]
8,27%,Cc1c(Cl)nc(NCCc2cccnc2)c(=O)n1CC(=O)NCc1ccc(C(=N)N)cc1 [1471-8]
9,29%,N=C(N)c1ccc(CNC(=O)Cn2c(-c3ccccc3)c(Cl)nc(NCc3ccccc3)c2=O)cc1 [1471-9]
10,45%,N=C(N)c1ccc(CNC(=O)Cn2c(-c3ccccc3)c(Cl)nc(NCCc3ccc(Cl)cc3)c2=O)cc1 [1471-10]
11,9%,N=C(N)c1ccc(CNC(=O)Cn2c(-c3ccccc3)c(Cl)nc(NCc3ccncc3)c2=O)cc1 [1471-11]
12,9%,N=C(N)c1ccc(CNC(=O)Cn2c(-c3ccccc3)c(Cl)nc(NCCN3CCOCC3)c2=O)cc1 [1471-12]
13,0%,N=C(N)c1ccc(CNC(=O)Cn2c(-c3ccccc3)c(Cl)nc(NCCc3ccncc3)c2=O)cc1 [1471-13]
14,23%,N=C(N)c1ccc(CNC(=O)Cn2c(-c3ccccc3)c(Cl)nc(NCCc3cccnc3)c2=O)cc1 [1471-16]
15,26%,N=C(N)c1ccc(CNC(=O)Cn2c(-c3ccc(Cl)cc3)c(Cl)nc(NCCc3ccc(Cl)cc3)c2=O)cc1 [1471-18]
16,28%,N=C(N)c1ccc(CNC(=O)Cn2c(-c3ccc(Cl)cc3)c(Cl)nc(NCCc3cccc(Cl)c3)c2=O)cc1 [1471-22]
17,36%,N=C(N)c1ccc(CNC(=O)Cn2c(-c3ccc(Cl)cc3)c(Cl)nc(NCCc3ccccc3)c2=O)cc1 [1471-23]
18,31%,N=C(N)c1ccc(CNC(=O)Cn2c(-c3cccc(Cl)c3)c(Cl)nc(NCc3ccccc3)c2=O)cc1 [1471-25]
19,16%,N=C(N)c1ccc(CNC(=O)Cn2c(-c3cccc(Cl)c3)c(Cl)nc(NCc3ccncc3)c2=O)cc1 [1471-27]
20,8%,N=C(N)c1ccc(CNC(=O)Cn2c(-c3cccc(Cl)c3)c(Cl)nc(NCCN3CCOCC3)c2=O)cc1 [1471-28]
21,21%,N=C(N)c1ccc(CNC(=O)Cn2c(-c3cccc(Cl)c3)c(Cl)nc(NCCc3ccncc3)c2=O)cc1 [1471-29]
22,41%,N=C(N)c1ccc(CNC(=O)Cn2c(-c3cccc(Cl)c3)c(Cl)nc(NCCc3cccc(Cl)c3)c2=O)cc1 [1471-30]
23,17%,N=C(N)c1ccc(CNC(=O)Cn2c(-c3cccc(Cl)c3)c(Cl)nc(NCCc3ccccc3)c2=O)cc1 [1471-31]

row,IC50 or % Inhibition Factor Xa (30 µM),Compound
1,25%,N=C(N)c1ccc(CNC(=O)Cn2c(-c3cccc(Cl)c3)c(Cl)nc(NCCc3cccnc3)c2=O)cc1 [1471-32]
2,24%,COc1ccc(-c2c(Cl)nc(NCCc3ccc(Cl)cc3)c(=O)n2CC(=O)NCc2ccc(C(=N)N)cc2)cc1 [1471-34]
3,34%,N=C(N)c1ccc(CNC(=O)Cn2c(-c3ccc4c(c3)OCO4)c(Cl)nc(NCc3ccccc3)c2=O)cc1 [1471-41]
4,15%,N=C(N)c1ccc(CNC(=O)Cn2c(-c3ccc4c(c3)OCO4)c(Cl)nc(NCCc3ccc(Cl)cc3)c2=O)cc1 [1471-42]
5,18%,N=C(N)c1ccc(CNC(=O)Cn2c(-c3ccc4c(c3)OCO4)c(Cl)nc(NCc3ccncc3)c2=O)cc1 [1471-43]
6,24%,N=C(N)c1ccc(CNC(=O)Cn2c(-c3ccc4c(c3)OCO4)c(Cl)nc(NCCc3ccncc3)c2=O)cc1 [1471-45]
7,21%,N=C(N)c1ccc(CNC(=O)Cn2c(-c3ccc4c(c3)OCO4)c(Cl)nc(NCCc3cccc(Cl)c3)c2=O)cc1 [1471-46]
8,22%,N=C(N)c1ccc(CNC(=O)Cn2c(-c3ccc4c(c3)OCO4)c(Cl)nc(NCCc3ccccc3)c2=O)cc1 [1471-47]
9,17%,N=C(N)c1ccc(CNC(=O)Cn2c(-c3ccc4c(c3)OCO4)c(Cl)nc(NCCc3cccnc3)c2=O)cc1 [1471-48]
10,0%,CCc1c(Cl)nc(NCCc2ccc(Cl)cc2)c(=O)n1CC(=O)NCc1ccc(C(=N)N)cc1 [1471-58]
11,0%,CCc1c(Cl)nc(NCc2ccncc2)c(=O)n1CC(=O)NCc1ccc(C(=N)N)cc1 [1471-59]
12,0%,CCc1c(Cl)nc(NCCN2CCOCC2)c(=O)n1CC(=O)NCc1ccc(C(=N)N)cc1 [1471-60]
13,0%,CCc1c(Cl)nc(NCCc2ccncc2)c(=O)n1CC(=O)NCc1ccc(C(=N)N)cc1 [1471-61]
14,2%,CCc1c(Cl)nc(NCCc2ccccc2)c(=O)n1CC(=O)NCc1ccc(C(=N)N)cc1 [1471-63]
15,2%,CCc1c(Cl)nc(NCCc2cccnc2)c(=O)n1CC(=O)NCc1ccc(C(=N)N)cc1 [1471-64]
16,9%,N=C(N)c1ccc(CNC(=O)Cn2c(-c3ccccc3)c(Cl)nc(NC3CCc4ccccc43)c2=O)cc1 (stereo not shown) [1507-02]
17,21%,N=C(N)c1ccc(CNC(=O)Cn2c(-c3ccccc3)c(Cl)nc(NCc3ccccc3Cl)c2=O)cc1 [1507-03]
18,10%,N=C(N)c1ccc(CNC(=O)Cn2c(-c3ccccc3)c(Cl)nc(NCCCn3ccnc3)c2=O)cc1 [1507-05]
19,13%,N=C(N)c1ccc(CNC(=O)Cn2c(-c3ccccc3)c(Cl)nc(NCC(c3ccccc3)c3ccccc3)c2=O)cc1 [1507-09]
20,18%,N=C(N)c1ccc(CNC(=O)Cn2c(-c3ccccc3)c(Cl)nc(NC3CCCc4ccccc43)c2=O)cc1 (stereo not shown) [1507-16]
21,16%,N=C(N)c1ccc(CNC(=O)Cn2c(-c3ccccc3)c(Cl)nc(NCCC3=CCCCC3)c2=O)cc1 [1507-17]
22,4%,N=C(N)c1ccc(CNC(=O)Cn2c(-c3ccccc3)c(Cl)nc(NCCCN3CCCC3=O)c2=O)cc1 [1507-19]
23,23%,N=C(N)c1ccc(CNC(=O)Cn2c(-c3ccccc3)c(Cl)nc(NC3CCC3)c2=O)cc1 [1507-21]

row,IC50 or % Inhibition Factor Xa (30 µM),Compound
1,4%,N=C(N)c1ccc(CNC(=O)Cn2c(-c3ccccc3)c(Cl)nc(NC3CCCCCC3)c2=O)cc1 [1507-29]
2,28%,N=C(N)c1ccc(CNC(=O)Cn2c(-c3ccccc3)c(Cl)nc(NC(c3ccccc3)c3ccccc3)c2=O)cc1 [1507-35]
3,0%,N=C(N)c1ccc(CNC(=O)Cn2c(-c3ccccc3)c(Cl)nc(NC3CCS(=O)(=O)C3)c2=O)cc1 (stereo not shown) [1507-36]
4,11%,N=C(N)c1ccc(CNC(=O)Cn2c(-c3ccccc3)c(Cl)nc(NCc3cc(C(F)(F)F)cc(C(F)(F)F)c3)c2=O)cc1 [1507-40]
5,21%,N=C(N)c1ccc(CNC(=O)Cn2c(-c3ccccc3)c(Cl)nc(NCCCCc3ccccc3)c2=O)cc1 [1507-43]
6,9%,N=C(N)c1ccc(CNC(=O)Cn2c(-c3ccccc3)c(Cl)nc(NCCc3ccc(Cl)c(Cl)c3)c2=O)cc1 [1507-44]
7,8%,N=C(N)c1ccc(CNC(=O)Cn2c(-c3ccccc3)c(Cl)nc(NCc3ccc(Cl)cc3)c2=O)cc1 [1507-46]
8,19%,CN(C)CCCNc1nc(Cl)c(-c2ccccc2)n(CC(=O)NCc2ccc(C(=N)N)cc2)c1=O [1507-47]
9,4%,N=C(N)c1ccc(CNC(=O)Cn2c(-c3ccccc3)c(Cl)nc(NCC3COc4ccccc4O3)c2=O)cc1 (stereo not shown) [1512-01]
10,3%,COc1cccc(CNc2nc(Cl)c(-c3ccccc3)n(CC(=O)NCc3ccc(C(=N)N)cc3)c2=O)c1OC [1512-02]
11,10%,COc1ccc(CCNc2nc(Cl)c(-c3ccccc3)n(CC(=O)NCc3ccc(C(=N)N)cc3)c2=O)cc1OC [1512-05]
12,4%,N=C(N)c1ccc(CNC(=O)Cn2c(-c3ccccc3)c(Cl)nc(NCCCc3ccccc3)c2=O)cc1 [1512-06]
13,5%,CCOc1ccccc1CNc1nc(Cl)c(-c2ccccc2)n(CC(=O)NCc2ccc(C(=N)N)cc2)c1=O [1512-11]
14,5%,CCCCC(CC)Nc1nc(Cl)c(-c2ccccc2)n(CC(=O)NCc2ccc(C(=N)N)cc2)c1=O (stereo not shown) [1512-12]
15,7%,CCCCNc1nc(Cl)c(-c2ccccc2)n(CC(=O)NCc2ccc(C(=N)N)cc2)c1=O [1512-14]
16,6%,CN(C)CCNc1nc(Cl)c(-c2ccccc2)n(CC(=O)NCc2ccc(C(=N)N)cc2)c1=O [1512-15]
17,10%,N=C(N)c1ccc(CNC(=O)Cn2c(-c3ccccc3)c(Cl)nc(NC3CCCCCC3)c2=O)cc1 [1512-16]
18,3%,N=C(N)c1ccc(CNC(=O)Cn2c(-c3ccccc3)c(Cl)nc(NC3CCS(=O)(=O)C3)c2=O)cc1 (stereo not shown) [1512-19]
19,6%,CC1CCCC(Nc2nc(Cl)c(-c3ccccc3)n(CC(=O)NCc3ccc(C(=N)N)cc3)c2=O)C1C (stereo not shown) [1512-23]
20,5%,N=C(N)c1ccc(CNC(=O)Cn2c(-c3ccccc3)c(Cl)nc(NCc3ccc(C(F)(F)F)cc3F)c2=O)cc1 [1512-26]
21,3%,N=C(N)c1ccc(CNC(=O)Cn2c(-c3ccccc3)c(Cl)nc(NCc3cc(C(F)(F)F)ccc3F)c2=O)cc1 [1512-27]
